Data as given in patent publication US20220273660A1, “MEK INHIBITOR FOR TREATMENT OF STROKE” (EDVINCE AB, priority 2019, published 2022).
“Also recorded” adds a separate entry of the source.

Assays:
[1] = tested on: rat basilar arteries (contractile ETB receptors); experiment: 48 h organ culture of basilar artery, S6c (ETB agonist)-induced contraction in wire myograph; format: cell-based
Method: (§1) Rats were sedated with O2/CO2 (30/70%) and sacrificed by decapitation. Brains were gently removed and chilled in a cold oxygenated buffer solution of the following composition: 119 mM NaCl, 4.6 mM KCl, 1.5 mM CaCl2, 1.2 mM MgCl2, 1.2 mM NaH2PO4, 15 mM NaHCO3 and 5.5 mM Glucose; pH 7.4. The basilar artery (BA) was carefully dissected from the brain in a physiological buffer solution followed by either OC (naïve animals) or directly mounted in a wire myograph (arteries from rats which has undergone surgical procedures). Segments were incubated for 48 hours at 37° C. in humidified 5% CO2/O2 in DMEM supplemented with streptomycin and penicillin with inhibitors or vehicle (DMSO). Culture media was changed after 24 hours.
For contractility measurements, both incubated BAs (ex vivo) and BAs after surgical procedure (in vivo) were cut into segments and mounted on a pair of metal wires (40 μm) in a myograph bath. The arteries from OC were mounted the same way after 48 hours in media. One wire was attached to a micro-meter screw which allows for fine adjustments of the distance between the wires, controlling the vascular tone.
The segments were equilibrated in physiological buffer aerated with 95% O2/5% CO2, pH of 7.4, temperature set at 37° C. and the wires were separated for isometric pretension at 2 Nm^−1. The arterial segments were exposed two or three times with 60 mM K^+, by exchanging the buffer with a 60 mM K^+ buffer solution. To maintain equal osmolarity, a proportional amount of Na^+ had been removed from the buffer. An absolute cut-off was set at 2.0 mN K^+max for inclusion of arterial segments from rats that underwent the surgical procedure. Endothelium function was evaluated with the addition of 5-HT (3.10^−7 M) followed by carbachol (10^−5 M). For arteries from the OC the protocol was as followed: first a cumulative concentration-response curve to sarafotoxin 6C (S6c, 10^−14-10^−7 M), followed by a concentration-response curve to endothelin-1 (ET-1, 10^−14-10^−7 M). At peak ET-1 (10^−7 M), the buffer was changed to a Ca^2+-free buffer containing 10^−7 M ET-1 and nimodipine (L-type of voltage dependent Ca^2+ channel entry blocker, 10^−7 M). A concentration-response curve to Ca^2+ (0.0125-3 mM) was then performed. When vasodilation was investigated arteries was precontracted with U46619 (1.10^−7-3.10^−7 M) or K^+ (41 mM) and cumulative concentration-response curves was performed by adding calcitonin gene-related peptide (CGRP, 10^−12-10^−7 M), carbachol (10^−10-10^−5 M) or SNP (10^−11-10^−4 M).
Contractile responses of each segment were adjusted according to the length of the artery and are expressed as mN/mm (Nm^−1). […] To compare ET-1 sensitivity, arteries were normalized to the percentage of the individual vessel ET-1max. When the artery reached maximum contraction before the last concentration was added, the curves were constrained to the max contraction. The relative log IC50/log EC50 is the concentration corresponding to a response midway between the estimates of the lower and upper plateaus. The Emax is the maximal contraction in the concentration response curve and ET-1max is the maximal contraction to ET-1. All quantitative data is presented as mean±standard error of the mean (SEM), unless otherwise stated.

rat basilar arteries = experiment: 48 h organ culture of basilar artery, VDCC independent contraction (Ca2+ curve after ET-1 precontraction with nimodipine); format: cell-based; settings: 1 μM inhibitor, 48 h OC, 10^-7 M nimodipine
Method: as §1
The segments were equilibrated in physiological buffer aerated with 95% O2/5% CO2, pH of 7.4, temperature set at 37° C. and the wires were separated for isometric pretension at 2 Nm^−1. The arterial segments were exposed two or three times with 60 mM K^+, by exchanging the buffer with a 60 mM K^+ buffer solution. To maintain equal osmolarity, a proportional amount of Na^+ had been removed from the buffer. An absolute cut-off was set at 2.0 mN K^+max for inclusion of arterial segments from rats that underwent the surgical procedure. Endothelium function was evaluated with the addition of 5-HT (3.10^−7 M) followed by carbachol (10^−5 M). […]

[2] = tested on: rat subarachnoid haemorrhage model; experiment: Rotating pole test after SAH, intrathecal treatment; format: in vivo; settings: SAH + i.t. treatment
Method: The intrathecal (i.t.) treatment volumes were estimated for a cerebrospinal fluid (CSF) volume of approximately 90 μL (21) and the total dose was administered as three treatments (4 hours, 10 hours and 24 hours) through the PinPort in the ICP catheter placed in the cisterna magna during the surgical procedure. The first and third injections were given under fixation of the rat. Since the treatment 10 hours post-surgery was administered by a single researcher, the rats were briefly anaesthetised with isoflurane 3.5-4% (maintained at 1.75-2%) in atmospheric air/O2 (70%/30%) using a facemask, to prevent sudden movements of the rat. […]
Gross sensorimotor function was evaluated using a rotating pole test, including a baseline evaluation on the day before induction of SAH. Briefly, movement across a 10-rpm rotating pole (45 mm diameter, 150 cm length) was evaluated with a cage at the end that contain the rat's own bedding material (“smells like home”). Rat performance was scored according to the following definitions: Low, the animal is unable to cross the pole without falling off; High, the animal can traverse the entire pole without falling off. […] Pre-SAH and on day 1 and 2 after surgery, each animal was scored twice for left and right rotation respectively, i.e. 4 counts per animal. […]

## CC(=O)Nc1cccc(-n2c(=O)n(C3CC3)c(=O)c3c(Nc4ccc(I)cc4F)n(C)c(=O)c(C)c32)c1 [trametinib]
[1]; 1 μM inhibitor, 48 h organ culture, S6c contraction relative to 60 mM K+
  inhibition of S6c-induced contraction (initial screening groups): Highly effective; also recorded: almost completely inhibited
[1]; Rattus norvegicus, 48 h organ culture, inhibition of S6c-induced contraction, read-out: pIC50 (based on the Emax for S6c) (converted)
  IC50: 20.9 nM
[1]; at predicted CSF concentration of approximately 10^-7 M
  estimated inhibitor effect in the ex vivo OC study: ~75%
Rat basilar arteries
  VDCC independent contraction: significantly prevented
[2]
  neurological assessment scores (rotating pole test): Improved neurological assessment scores
[2]; 48 hours post-SAH, 10 rpm
  rotating pole Score48 h (% high score count/total score count): 96%
